US20240166630A1, “INDOLE DERIVATIVES AS SEROTONERGIC AGENTS USEFUL FOR THE TREATMENT OF DISORDERS RELATED THERETO” (Mindset Pharma Inc., priority 2021, published 2024)
Several values for one entry are separate records, joined by “and”; a condition that tells them apart may be missing. Equal entries are not always repeated. Where two headings read alike, the source gives them in different places.

Assays:
[1] = Liver microsomes stability with NADPH, human
Method: The objective of this study was to estimate in vitro metabolic stability of representative compounds of the application in pooled human and male mouse liver microsomes. The concentrations of parent compounds in reaction systems were evaluated by LC-MS/MS for estimating the stability in pooled human and male mouse liver microsomes. The in vitro intrinsic clearances of test compounds were determined as well.
A master solution in the “Incubation Plate” containing phosphate buffer, ultra-pure H2O, MgCl2 solution and liver microsomes was made according to Table 3. The mixture was pre-warmed at 37° C. water bath for 5 minutes.
40 μL of 10 mM NADPH solution was added to each well. The final concentration of NADPH was 1 mM. The negative control samples were prepared by replacing NADPH with 40 μL of ultra-pure H2O. Samples were prepared in duplicate. Negative controls were prepared in singlet.
The reaction was started with the addition of 4 μL of 200 μM test compounds or control compounds to each master solution to get the final concentration of 2 μM. This study was performed in duplicate.
Aliquots of 50 μL were taken from the reaction solution at 0, 15, 30, 45 and 60 minutes. The reaction solutions were stopped by the addition of 4 volumes of cold methanol with IS (100 nM alprazolam, 200 nM imipramine, 200 nM labetalol and 2 μM ketoprofen). Samples were centrifuged at 3,220 g for 40 minutes. Aliquot of 90 μL of the supernatant was mixed with 90 μL of ultra-pure H2O and then was used for LC-MS/MS analysis.
LC/MS analysis was performed for all samples from this study using a Shimadzu liquid chromatograph separation system equipped with degasser DGU-20A5R; solvent delivery unit LC-30AD; system controller SIL-30AC; column oven CTO-30A; CTC Analytics HTC PAL System; Mass spectrometric analysis was performed using an Triple Quad™ 5500 instrument.
All calculations were carried out using Microsoft Excel. Peak area ratios of test compound to internal standard (listed in the below table) were determined from extracted ion chromatograms.
All calculations were carried out using Microsoft Excel. Peak areas were determined from extracted ion chromatograms. The slope value, k, was determined by linear regression of the natural logarithm of the remaining percentage of the parent drug vs. incubation time curve.
The in vitro half-life (in vitro t1/2) was determined from the slope value:
Conversion of the in vitro t1/2 (min) into the in vitro intrinsic clearance (in vitro CLint, in μL/min/mg proteins) was done using the following equation (mean of duplicate determinations): […]

[2] = In vivo pharmacokinetics in male C57BL/6 mice; set-up: species or system mouse
Method: Animals: Male C57BL/6 mice (25-30 g) from Charles River Labs were acclimatized for a minimum of 5 days prior to dosing. Body weights were recorded on the day of dosing.
Food restriction: Animals dosed p.o. were deprived of food overnight and fed ˜2 h following dosing.
Dosing: Formulations were administered intravenously (i.v.) via the tail vein or orally (p.o.) by gavage with disposable feeding needles.
Sample collection: Serial blood samples was collected via tail snip. Terminal blood samples was collected under isoflurane anesthesia by cardiac puncture.
Sample processing/storage: All blood samples were transferred into K2EDTA tubes on wet ice and centrifuged within 5 min (3200× g for 5 min at 4° C.) to obtain plasma. Plasma was stored at −80° C. until analysis.
Instrumentation: AB Sciex QTRAP 4000 or 6500 MS/MS system equipped with an LC system with a binary pump, a solvent degasser, a thermostatted column compartment and a multiplate autosampler.
5. PK Analysis • i. Analysis software: Phoenix® WinNonlin® 8.2 (Pharsight, Certara, Mountainview, CA) • ii. Analysis methods: non-compartmental analysis, linear up/log down trapezoidal rule • iii. PK parameters: C0, t1/2, AUC0-tlast. AUC0-∞, CL, Vss, MRT, tmax(po), Cmax(po), F, as appropriate

[3] = Liver microsomes stability with NADPH, rat
[4] = 9.92 mg/kg i.v., individual animals M10-M12
[5] = 9.92 mg/kg p.o., individual animals M13-M15
[6] = 9.92 mg/kg s.c., individual animals M16-M18

## [2H]C([2H])(c1c[nH]c2ccccc12)[C@H]1CCCN1C([2H])([2H])[2H] [I-B-1, (R)-3-((1-(methyl-d3)pyrrolidin-2-yl)methyl-d2)-1H-indole]
[1]; human liver microsomes, with NADPH, 2 μM
  Remaining Percentage (%) after 60 min Human: 82.74%
[1]; human, microsomes
  half-life at 2 μM: 3.66 h
  microsomal CLint at 2 μM: 6.32 µL/min/mg
[2]; [4]
  AUC0-tlast: 3708 ng·h/mL and 4440 ng·h/mL
  AUC(0-inf): 3709 ng·h/mL and 4441 ng·h/mL
  Apparent t1/2: 2.16 h and 2.05 h
  C0: 3473 ng/mL and 3356 ng/mL
  CL: 44.58 mL/min/kg and 37.23 mL/min/kg
  MRT0-inf: 2.46 h and 2.57 h
  Vss: 6.59 L/kg and 5.751 L/kg
[2]; 9.92 mg/kg p.o., Mean ± SD
  F: 58.2 ± 18.4%
[2]; [5]
  AUC0-tlast: 2782 ng·h/mL and 2260 ng·h/mL
  AUC(0-inf): 3099 ng·h/mL
  Cmax: 516 ng/mL and 342 ng/mL
  MRT0-inf: 8.54 h
  tmax: 1.00 h and 0.500 h
[2]; 9.92 mg/kg p.o., individual animals M13-M15, for M15 AUC0-tlast used
  F: 40.8% and 77.5% and 56.5%
[2]; 9.92 mg/kg p.o., individual animals, estimate may not be accurate
  Apparent t1/2: 9.46 h
[2]; 9.92 mg/kg s.c., Mean ± SD
  F: 67.9 ± 6.24%
[2]; [6]
  AUC0-tlast: 2833 ng·h/mL and 2429 ng·h/mL
  AUC(0-inf): 2834 ng·h/mL and 2431 ng·h/mL
  Apparent t1/2: 2.24 h and 2.56 h
  Cmax: 1090 ng/mL and 950 ng/mL
  F: 72.2% and 70.9% and 60.8%
  MRT0-inf: 2.58 h
  tmax: 0.500 h
[2]; male, C57BL/6, mouse, plasma, iv, 9.92 mg/kg, 9.92 mg/kg i.v., Mean ± SD
  clearance: 41.7 mL/min/kg
[2]; male, C57BL/6, mouse, plasma, iv, 9.92 mg/kg, 9.92 mg/kg i.v., Mean ± SD, read-out: AUC0-inf
  AUC(0-inf): 4000 ± 389 ng·h/mL
[2]; male, C57BL/6, mouse, plasma, iv, 9.92 mg/kg, 9.92 mg/kg i.v., Mean ± SD, read-out: AUC0-tlast
  AUC(0-t): 4000 ± 389 ng·h/mL
[2]; male, C57BL/6, mouse, plasma, iv, 9.92 mg/kg, 9.92 mg/kg i.v., Mean ± SD, read-out: Apparent t1/2 (converted)
  half-life: 2.17 ± 0.127 h
[2]; male, C57BL/6, mouse, plasma, iv, 9.92 mg/kg, 9.92 mg/kg i.v., Mean ± SD, read-out: C0
  C0: 3910 ± 868 ng/mL
[2]; male, C57BL/6, mouse, plasma, iv, 9.92 mg/kg, 9.92 mg/kg i.v., Mean ± SD, read-out: MRT0-inf
  MRT inf: 2.43 ± 0.16 h
[2]; male, C57BL/6, mouse, plasma, iv, 9.92 mg/kg, 9.92 mg/kg i.v., Mean ± SD, read-out: Vss
  Vd: 6.06 ± 0.464 L/kg
[2]; male, C57BL/6, mouse, plasma, iv, 9.92 mg/kg, 9.92 mg/kg i.v., individual animals M10-M12
  clearance: 43 mL/min/kg
[2]; male, C57BL/6, mouse, plasma, iv, 9.92 mg/kg, 9.92 mg/kg i.v., individual animals M10-M12, read-out: AUC0-inf
  AUC(0-inf): 3850 ng·h/mL
[2]; male, C57BL/6, mouse, plasma, iv, 9.92 mg/kg, 9.92 mg/kg i.v., individual animals M10-M12, read-out: AUC0-tlast
  AUC(0-t): 3850 ng·h/mL
[2]; male, C57BL/6, mouse, plasma, iv, 9.92 mg/kg, 9.92 mg/kg i.v., individual animals M10-M12, read-out: Apparent t1/2 (converted)
  half-life: 2.3 h
[2]; male, C57BL/6, mouse, plasma, iv, 9.92 mg/kg, 9.92 mg/kg i.v., individual animals M10-M12, read-out: C0
  C0: 4910 ng/mL
[2]; male, C57BL/6, mouse, plasma, iv, 9.92 mg/kg, 9.92 mg/kg i.v., individual animals M10-M12, read-out: MRT0-inf
  MRT inf: 2.26 h
[2]; male, C57BL/6, mouse, plasma, iv, 9.92 mg/kg, 9.92 mg/kg i.v., individual animals M10-M12, read-out: Vss
  Vd: 5.83 L/kg
[2]; male, C57BL/6, mouse, plasma, po, 9.92 mg/kg, 9.92 mg/kg p.o., Mean ± SD, read-out: AUC0-tlast
  AUC(0-t): 2170 ± 665 ng·h/mL
[2]; male, C57BL/6, mouse, plasma, po, 9.92 mg/kg, 9.92 mg/kg p.o., Mean ± SD, read-out: Cmax
  Cmax: 389 ± 112 ng/mL
[2]; male, C57BL/6, mouse, plasma, po, 9.92 mg/kg, 9.92 mg/kg p.o., Mean ± SD, read-out: tmax
  tmax: 0.25 h
[2]; male, C57BL/6, mouse, plasma, po, 9.92 mg/kg, 9.92 mg/kg p.o., individual animals M13-M15, read-out: AUC0-inf
  AUC(0-inf): 1630 ng·h/mL
[2]; male, C57BL/6, mouse, plasma, po, 9.92 mg/kg, 9.92 mg/kg p.o., individual animals M13-M15, read-out: AUC0-tlast
  AUC(0-t): 1460 ng·h/mL
[2]; male, C57BL/6, mouse, plasma, po, 9.92 mg/kg, 9.92 mg/kg p.o., individual animals M13-M15, read-out: Cmax
  Cmax: 308 ng/mL
[2]; male, C57BL/6, mouse, plasma, po, 9.92 mg/kg, 9.92 mg/kg p.o., individual animals M13-M15, read-out: MRT0-inf
  MRT inf: 8.91 h
[2]; male, C57BL/6, mouse, plasma, po, 9.92 mg/kg, 9.92 mg/kg p.o., individual animals, estimate may not be accurate, read-out: Apparent t1/2 (converted)
  half-life: 9.66 h
[2]; male, C57BL/6, mouse, plasma, po, 9.92 mg/kg, 9.92 mg/kg p.o., mean (n = 2), read-out: AUC0-inf
  AUC(0-inf): 2360 ng·h/mL
[2]; male, C57BL/6, mouse, plasma, po, 9.92 mg/kg, 9.92 mg/kg p.o., mean (n = 2), read-out: Apparent t1/2 (converted)
  half-life: 9.56 h
[2]; male, C57BL/6, mouse, plasma, po, 9.92 mg/kg, 9.92 mg/kg p.o., mean (n = 2), read-out: MRT0-inf
  MRT inf: 8.72 h
[2]; male, C57BL/6, mouse, plasma, sc, 9.92 mg/kg, 9.92 mg/kg s.c., Mean ± SD, read-out: AUC0-inf
  AUC(0-inf): 2720 ± 249 ng·h/mL
[2]; male, C57BL/6, mouse, plasma, sc, 9.92 mg/kg, 9.92 mg/kg s.c., Mean ± SD, read-out: AUC0-tlast
  AUC(0-t): 2720 ± 250 ng·h/mL
[2]; male, C57BL/6, mouse, plasma, sc, 9.92 mg/kg, 9.92 mg/kg s.c., Mean ± SD, read-out: Apparent t1/2 (converted)
  half-life: 2.3 ± 0.232 h
[2]; male, C57BL/6, mouse, plasma, sc, 9.92 mg/kg, 9.92 mg/kg s.c., Mean ± SD, read-out: Cmax
  Cmax: 1240 ± 387 ng/mL
[2]; male, C57BL/6, mouse, plasma, sc, 9.92 mg/kg, 9.92 mg/kg s.c., Mean ± SD, read-out: MRT0-inf
  MRT inf: 2.6 ± 0.186 h
[2]; male, C57BL/6, mouse, plasma, sc, 9.92 mg/kg, 9.92 mg/kg s.c., Mean ± SD, read-out: tmax
  tmax: 0.25 h
[2]; male, C57BL/6, mouse, plasma, sc, 9.92 mg/kg, 9.92 mg/kg s.c., individual animals M16-M18, read-out: AUC0-inf
  AUC(0-inf): 2890 ng·h/mL
[2]; male, C57BL/6, mouse, plasma, sc, 9.92 mg/kg, 9.92 mg/kg s.c., individual animals M16-M18, read-out: AUC0-tlast
  AUC(0-t): 2880 ng·h/mL
[2]; male, C57BL/6, mouse, plasma, sc, 9.92 mg/kg, 9.92 mg/kg s.c., individual animals M16-M18, read-out: Apparent t1/2 (converted)
  half-life: 2.1 h
[2]; male, C57BL/6, mouse, plasma, sc, 9.92 mg/kg, 9.92 mg/kg s.c., individual animals M16-M18, read-out: Cmax
  Cmax: 1680 ng/mL
[2]; male, C57BL/6, mouse, plasma, sc, 9.92 mg/kg, 9.92 mg/kg s.c., individual animals M16-M18, read-out: MRT0-inf
  MRT inf: 2.8 h
[2]; male, C57BL/6, mouse, plasma, sc, 9.92 mg/kg, 9.92 mg/kg s.c., individual animals M16-M18, read-out: tmax
  tmax: 0.25 h
[3]; rat liver microsomes, with NADPH, 2 μM
  Remaining Percentage (%) after 60 min Rat: 32.40%
[3]; rat, microsomes
  half-life at 2 μM: 0.615 h
  microsomal CLint at 2 μM: 37.6 µL/min/mg
